Assay results published in PubChem BioAssay (NCI).
Several values for one entry are separate records, joined by “and”; a condition that tells them apart may be missing. Identical values can stand only once.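 Five compound concentrations were applied to cells in 96-well plates for 48 hours; endpoints were derived by simple linear interpolation of the resulting dose-response curve. Abbreviation: GI50, concentration required for 50% inhibition of growth. The concentration for full growth arrest is given as TGI.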

Experiments:
Experiment in all cases: DTP human tumour cell line panel, 48 h
UACC-257 melanoma = system: UACC-257 melanoma
NCI-H460 lung = system: NCI-H460 lung
BT-549 breast = system: BT-549 breast
SR leukemia = system: SR leukemia
SF-268 CNS = system: SF-268 CNS
A498 renal = system: A498 renal
NCI-H23 lung = system: NCI-H23 lung
UACC-62 melanoma = system: UACC-62 melanoma
HL-60(TB) leukemia = system: HL-60(TB) leukemia
NCI-H522 lung = system: NCI-H522 lung

SMILES	GI50 (UACC-257 melanoma) [µM]	TGI (UACC-257 melanoma) [µM]	GI50 (NCI-H460 lung) [µM]	TGI (NCI-H460 lung)	GI50 (BT-549 breast) [µM]	TGI (BT-549 breast) [µM]	GI50 (SR leukemia) [µM]	TGI (SR leukemia)	GI50 (SF-268 CNS) [µM]	TGI (SF-268 CNS)	GI50 (A498 renal) [µM]	TGI (A498 renal)	GI50 (NCI-H23 lung) [µM]	TGI (NCI-H23 lung) [µM]	GI50 (UACC-62 melanoma) [µM]	TGI (UACC-62 melanoma)	GI50 (HL-60(TB) leukemia)	TGI (HL-60(TB) leukemia)	GI50 (NCI-H522 lung)	TGI (NCI-H522 lung)
O=Cc1c(-c2cc(O)ccc2O)nc2sccn12	29.9	95.8	18	40.8 µM	18	48.8	0.64	3.42 µM	3.83	38.3 µM	29.5	78.9 µM	20.9	51.4	10.6	32 µM				
COc1ccccc1-[n+]1cc(-c2ccc(-c3ccccc3)cc2)n2c1CCCCC2	0.318	12.9	0.388	11.5 µM	0.15	1.25	0.304	24.1 µM	0.423	14.8 µM	0.615	7.5 µM	0.101	10.1	0.159	1.8 µM	0.0429 µM	1.01 µM	0.169 µM	9.03 µM
COc1cc(Nc2nc3cc(N)cc(N)c3nc2-c2ccccc2)cc(OC)c1	15.9	48	7.91	52.8 µM	4.69	31.8	5.67	> 100 µM	5.59	55.8 µM	4.91	22.4 µM	27.5	> 100	7.33	23.3 µM	9.99 µM	> 100 µM	9.51 µM	28.8 µM
COc1c(O)c2c(c3cc(C(=O)N4CCc5c4c(O)c(OC)c4[nH]c(C(=O)N6CC7CC78C6=CC(=O)c6[nH]cc(C)c68)cc54)[nH]c13)CCN2C(N)=O (centres undefined)	1.34			1.83 nM and 137 nM and 0.00377 µg/mL		5.01		> 100 µM and 0.0804 µg/mL		47.4 nM and > 100 µM and 0.00521 µg/mL		6.94 nM and 247 nM and 0.0354 µg/mL		0.00242		5.3 nM and 688 nM and 0.00323 µg/mL	0.007 µg/mL	0.0439 µg/mL	0.0168 µg/mL	48.3 nM and 0.0372 µg/mL
COP(=O)(OC)C(NC(c1ccccc1)c1ccccc1)c1ccc2c(c1)OCO2 (centres undefined)	31.4	89.7	20.1	42 µM	20.6	38.8	24.4	48.9 µM	29.2	91.8 µM	22.8	44.2 µM	31.5	88.3	16	32.2 µM	22.8 µM	56.5 µM	24.5 µM	70 µM
Nc1ccc2c(SCCSc3c4ccccc4nc4cc(N)ccc34)c3ccccc3nc2c1		> 100		> 100 µM		> 100		> 100 µM		> 100 µM				> 100		> 100 µM				> 100 µM
c1ccc(Cc2nc3ccc(Nc4ncnc5ccccc45)cc3[nH]2)cc1	> 25	> 25	> 25	> 25 µM	> 25	> 25	> 25	> 25 µM	> 25	> 25 µM	9.41	> 25 µM	> 25	> 25	> 25	> 25 µM	20 µM	> 25 µM	> 15.1 µM	> 25 µM
CSc1nc2c(c(=O)[nH]1)N=C1c3ccccc3C(=O)C1C(c1ccc(F)cc1)N2 (centres undefined)	26	> 100	5.1	38.7 µM	8.5	41.2	6.31	> 100 µM	12.7	49.9 µM	4.88	20.5 µM	13.5	55.9	3.04	48.9 µM	6.54 µM	> 100 µM	3.17 µM	37.9 µM
Cc1c(C#N)cccc1-c1cc(-c2cn(Cc3cccc(C(C)(C)O)n3)nn2)nc(N)n1	27.7	> 100	44.9	> 100 µM	14.9	69.1	13.3	> 100 µM	45.4	> 100 µM			26	> 100	12	57.9 µM	12.2 µM	46 µM	12.4 µM	> 100 µM
O=C(O)C(=Cc1ccnc2ccccc12)C(=O)O		> 100		> 100 µM		> 100		> 100 µM		> 100 µM		> 100 µM		> 100		> 100 µM		> 100 µM		> 100 µM
Cc1ccc2c(c1)nc(C(=O)c1ccco1)c(C(F)(F)F)[n+]2[O-]	63.4	> 100	> 100	> 100 µM	78.5	> 100	64.4	> 100 µM	> 100	> 100 µM	1.66	3.06 µM	91.8	> 100	89.1	> 100 µM	51.4 µM	> 100 µM	66.7 µM	> 100 µM
COCCn1cc(-c2csc(-c3c[nH]c4ccccc34)n2)c2cccnc21	> 100	> 100	3.4	> 100 µM	4.45	> 100	3.02	> 100 µM	6.98	> 100 µM	3.03	9.56 µM	4.58	> 100	4.58	> 100 µM				
CC(C)(C)N1CCC1C(N)=O (centres undefined)	> 100	> 100	> 100	> 100 µM	> 100	> 100	> 100	> 100 µM	> 100	> 100 µM	> 100	> 100 µM	> 100	> 100	> 100	> 100 µM	> 100 µM	> 100 µM	> 100 µM	> 100 µM
CC(=O)Nc1ccc(/C=C/[N+](=O)[O-])cc1		17		20.7 µM		12.4				11.2 µM		15.2 µM		10.9		4 µM		6.44 µM		0.815 µM
